Reference: patent publication US10030056B2, “Agents for preventing and treating HIV and other viral infections” (priority 2013, dated 2018)
Non-standard residues stand in square brackets, D forms with d. No end group written: not given here.

Legend:
[1] = test system: HIV-1 laboratory strain NL4-3 PI 952; test: Infectivity of HIV-1 NL4-3 PI 952 in TZM-bl cells with 6 μg/ml SEVI fibrils, luciferase activity (FIG. 4, Table 1); assay type: cell-based; conditions: for luciferase activity of infected cells, mean value: 6 μg/ml SEVI fibrils, 48 hours after infection, HIV + SEVI control 7264.0, HIV + PBS 579.0; for lowering of the increased infectivity of the viruses caused by fibrils associated with SEVI: summary of Table 1 / FIG. 4
Protocol: The test approach was broken down as follows: The reporter cell line TZM-bl was incubated with the HIV-1 laboratory strain NL4-3 PI 952 in the presence of 6 μg/ml SEVI fibrils (fibril-forming PAP fragments isolated from semen; semen derived enhancer of virus infection). The fibrils were pre-Incubated with or without D3 and D3D3 (0.5 and 5 μg/ml, respectively) prior to infection. The infection efficiency was determined by measuring the luciferase activity (introduced by a luciferase gene coded in the laboratory strain) of the infected cells 48 hours after infection (Table 1: Results of FIG. 4).

HIV-1 [2] = test system: HIV-1
From the text: So as to analyze the effect of the amyloidogenic inhibitor D3 as a potential therapeutic agent for reducing amyloid peptide-promoted retroviral propagation, adherently growing TZM-bl cells were infected with HIV-1. These cells express the HIV-1 receptors CD4, CXCR4 and CCR5, which is why they are permissive both for T-tropic and M-tropic HIV isolates. […] The TZM-bl indicator cell line thus allows a quantitative analysis of HIV infection efficiency.
D3 was composed of amino acids of the D-enantiomeric form. Forty-eight hours after infection, the TZM-bl cells were washed with PBS, fixed by adding formaldehyde/glutaraldehyde, and subsequently washed again. The β-galactosidase-induced blue coloration of the cells was carried out by incubation overnight with a X-Gal solution. The coloring solution was removed the following day, the fixed cells were washed again with PBS and analyzed for blue coloration by way of optical microscopy. Since these reporter cells also express luciferase, in addition to the β-galactosidase, proportionally with the infection rate, this effect could also be determined quantitatively. […] After adding luciferase substrate solution, the light intensity at the 560 nm wavelength created by the oxidation of luciferin, which, in turn, is catalyzed by the firefly luciferase enzyme, was measured. […]

HIV-1 [3] = test system: HIV-1; remark: listed apart in the source
From the text: So as to analyze the effect of the amyloidogenic inhibitor D3 as a potential therapeutic agent for reducing amyloid peptide-promoted retroviral propagation, adherently growing TZM-bl cells were infected with HIV-1. […] The TZM-bl indicator cell line thus allows a quantitative analysis of HIV infection efficiency.
D3 was composed of amino acids of the D-enantiomeric form. Forty-eight hours after infection, the TZM-bl cells were washed with PBS, fixed by adding formaldehyde/glutaraldehyde, and subsequently washed again. The β-galactosidase-induced blue coloration of the cells was carried out by incubation overnight with a X-Gal solution. The coloring solution was removed the following day, the fixed cells were washed again with PBS and analyzed for blue coloration by way of optical microscopy. Since these reporter cells also express luciferase, in addition to the β-galactosidase, proportionally with the infection rate, this effect could also be determined quantitatively. For this purpose, the cells were infected in the same manner and, after being washed twice with PBS, were lysed using 1× passive lysis buffer (PLB). After adding luciferase substrate solution, the light intensity at the 560 nm wavelength created by the oxidation of luciferin, which, in turn, is catalyzed by the firefly luciferase enzyme, was measured. […]

[4] = number of cells colored in blue and measured light intensity

Substance | luciferase activity of infected cells, mean value ([1]; 0.5 μg/ml peptide) | luciferase activity of infected cells, mean value ([1]; 5 μg/ml peptide) | lowering of the increased infectivity of the viruses caused by fibrils associated with SEVI [1] | decrease in number of infected cells compared to the untreated cells with SEVI fibrils (HIV-1 [2]; 0.5 μg/ml D3, SEVI fibrils, TZM-bl cells, FIG. 2C) | reduction of infection rate promoted by SEVI (HIV-1 [2]; [4]) | decrease in number of infected cells compared to the untreated cells with amyloid-beta fibrils (HIV-1 [3]; 5 μg/ml D3, Aβ1-42 fibrils 50 μg/ml, TZM-bl cells, FIG. 2D) | reduction of infection rate promoted by Aβ (HIV-1 [3]; [4])
rprtrlhthrnr ([dR][dP][dR][dT][dR][dL][dH][dT][dH][dR][dN][dR]) [D3] | 7112.7 | 4368.0 | approximately 80% | approximately 60% | considerably reduce | approximately 90% | considerably reduce
rprtrlhthrnrrprtrlhthrnr ([dR][dP][dR][dT][dR][dL][dH][dT][dH][dR][dN][dR][dR][dP][dR][dT][dR][dL][dH][dT][dH][dR][dN][dR]) [D3D3, dimer of two D3 monomer units] | 5529.7 | 1321.0 | approximately 80% |  |  |  | 
